Article PMC6207618, “The GbsR Family of Transcriptional Regulators: Functional Characterization of the OpuAR Repressor” (Frontiers in Microbiology, 2018)
“Also recorded” adds a separate entry of the source.

What was measured:
B. infantis NRRL B-14911 = assay: Osmostress protection assay of B. infantis; type: cell-based, Bacillus infantis; conditions: basal medium with 0.9 M NaCl, 1 mM osmostress protectant, 29 h, 37°C
Experimental: (§1) Bacterial strains were propagated in Luria–Bertani (LB) liquid media at 37°C or plated on LB agar plates. The B. infantis strain NRRL B-14911 was grown in MOPS-buffered basal medium [50 mM MOPS (pH 7.5), 50 mM MgSO4, 10 mM KCl, 10 mM CaCl2, 190 mM NH4Cl, 0.33 mM K2HPO4, 0.1 mM FeSO4] supplemented with 0.5% glucose (wt/vol) as a carbon source, 0.4% casamino acids (wt/vol), 5 ml l^-1 vitamin solution A (7.8 mg l^-1 biotin, 15.6 mg l^-1 nicotinic acid, and 15.6 mg l^-1 lipoic acid; pH adjusted to 7.5), and 5 ml l^-1 vitamin solution B (15.6 mg l^-1 pantothenic acid, 15.6 mg l^-1 pyridoxine-HCl, 15.6 mg l^-1 thiamine, 15.6 mg l^-1 p-aminobenzoic acid, and 0.32 mg l^-1 cobalamin) ([Gonzalez et al., 1997]). In main cultures used for osmostress protection assays, casamino acids were left out from the growth medium. The osmolarity of growth media was adjusted by the addition of NaCl from a 5 M NaCl stock solution. If desired, osmostress protectants were added to the medium of B. infantis NRRL B-14911 cultures at a final concentration of 1 mM. For growth experiments, liquid cultures of B. infantis NRRL B-14911 were grown in 100-ml Erlenmeyer flasks containing 20-ml of medium in a water bath set to 37°C with vigorous shaking (set to 220 rpm). Pre-cultures of strains were propagated to mid-exponential growth phase in basal medium (with 0.4% casamino acids) and were then used to inoculate fresh basal medium (without casamino acids) to an optical density at 578 nm (OD578) of 0.1. Liquid cultures of B. subtilis strains were grown at 37°C in Spizizen’s minimal medium (SMM) ([Harwood and Archibald, 1990]) with 0.5% glucose as carbon source and a solution of trace elements ([Harwood and Cutting, 1990]). L-Tryptophan (20 mg l^-1) and L-phenylalanine (18 mg l^-1) were added to SMM-derived growth media to satisfy the auxotrophic needs of the B. subtilis strain JH642 (trpC2 pheA1) ([Smith et al., 2014]) and its derivatives (Supplementary Table S1). Cultures (20-ml in 100-ml Erlenmeyer flasks) of B. subtilis strains were inoculated from exponentially growing pre-cultures in SMM to an OD578 of 0.1 and were incubated in a shaking water bath (set to 220 rpm) at 37°C. If needed, the osmolarity of the growth medium was increased by the addition of NaCl (from 5 M stock solutions prepared in H2O). Compatible solutes were filter sterilized and added to the growth medium of B. subtilis strains from 100 mM stock solutions to a final concentration of 1 mM unless otherwise explicitly stated in the text.
(A) Influence of increasing salinity on the growth of B. infantis NRRL B-14911. Cultures were grown in basal medium adjusted to the indicated salinity. Growth yields were measured after 30 h of incubation at 37°C. (B) Osmostress protection assays were carried out in basal medium supplemented with 0.9 M NaCl and in the presence of 1 mM of the indicated osmostress protectants. After 29 h of incubation at 37°C, growth yields were determined by measuring the OD578 of the cultures. (C) Substrate specificity of the B. infantis OpuA transporter. The opuA operon (and its flanking opuAR gene) of B. infantis NRRL B-14911 was heterologously expressed in a derivative of B. subtilis JH642, lacking all uptake system for compatible solutes except for the L-proline-specific OpuE transporter ([Hoffmann and Bremer, 2017]; [Teichmann et al., 2017]). Growth assays were conducted in minimal medium (SMM), either in the absence or presence of 1.2 M NaCl and 1 mM of the indicated osmostress protectants. After 18 h of incubation at 37°C, the optical densities (OD578) of the cultures were measured. The given values are the means and standard deviations of four independent biological replicates.
Next, we studied the possible osmostress protection of B. infantis NRRL B-14911 by various exogenously provided compatible solutes.

[1] = test system: B. infantis OpuA transporter; assay: Osmostress protection growth assay, B. infantis opuA operon expressed in B. subtilis strain CAB2; type: cell-based, Bacillus infantis; conditions: for Osmostress protection (growth yield OD578): B. subtilis CAB2, SMM with 1.2 M NaCl, 1 mM osmostress protectant, 18 h, 37°C; for Substrate of / import via the B. infantis OpuA transporter: inferred from osmostress protection of B. subtilis CAB2, 1.2 M NaCl, 1 mM
Experimental: as §1
For the heterologous expression of the B. infantis NRRL B-14911 opuA operon (opuAA-opuAB-opuAC) in B. subtilis, a 3826-bp DNA fragment including the coding region of the opuA operon and the adjacent opuAR regulatory gene was generated by PCR using primers CA3-opuARA fwd and CA3-opuARA rev (Supplementary Table S2). […] Plasmid pX and its recombinant derivatives allow the stable insertion of genes into the B. subtilis chromosome as a single copy into the non-essential amyE locus via a double homologous recombination event via amyE sequences present on both the plasmid and the chromosome ([Kim et al., 1996]). Insertion of plasmid pX, or its recombinant derivatives, into the B. subtilis chromosome at the amyE gene can be selected for on agar plates containing the antibiotic chloramphenicol (final concentration: 5 μg ml^-1) and the subsequently scoring of the AmyE negative phenotype of the strains on LB plates containing 1% starch ([Harwood and Cutting, 1990]). Linearized plasmid DNA of pCA-opuARA was used to transform the B. subtilis chassis strain TMB118 [Δ(opuA::tet)3 Δ(opuC::spc)3 Δ(opuD::neo)2 Δ(opuB::erm)3] ([Teichmann et al., 2017]) in which only the proline-specific osmostress OpuE transporter ([von Blohn et al., 1997]) is present. The resulting strain was CAB2 (Supplementary Table S1). B. subtilis mutants carrying chromosomal deletions of the yvaV and opcR genes were constructed using long-flanking region PCR ([Kuwayama et al., 2002]).

Row | SMILES | Osmostress protection (growth yield OD578) (B. infantis NRRL B-14911) | Osmostress protection (growth yield OD578) [1] | Substrate of / import via the B. infantis OpuA transporter [1]
1 | C[N+]1(C)CCC[C@H]1C(=O)[O-] [proline betaine] | substantial level of osmostress protection | protected | major substrates
2 | C[S+](C)CCC(=O)[O-] [DMSP, dimethylsulfoniopropionate] | moderate level of osmostress protection | protected | good substrate
3 | C[N+](C)(C)CC(=O)[O-] [glycine betaine] | substantial level of osmostress protection | protected | major substrates
4 | CN(C)CC(=O)O [DMG, dimethlyglycine] | moderate level of osmostress protection | at a reduced level | –
5 | C[N+](C)(C)CCC(=O)[O-] [homobetaine] | moderate level of osmostress protection | protected | –
6 | C[N+](C)(C)CCO [choline] | not osmostress protective; also recorded: does not serve as an osmostress protectant | – | not imported; also recorded: not a substrate
